Here are results for one compound from patent US20260000698A1 (priority 2022, published 2026).

Marks after values point to notes of the source that are not given here.

Series [1] in a line: Liver S9 stability assay, human liver S9. To be noted: n = 2, mean±SD.
A further series concerns panel of 10 human MTases. The series can be described thus: Human MTase screening, whole panel. Type of series: biochemical. To be noted: 10 μM. The protocol:
To evaluate selectivity over human MTases, compound 3 was screened against a panel of 10 human MTases including histone lysine, protein arginine, DNA and RNA MTases. […] These preliminary results bolstered our premise that it was feasible to design selective Nsp14 MTase because of its unique structure in contrast to the canonical Rossmann fold.
Assay conditions. The human methyltransferase inhibition assays were performed at BPS Bioscience (San Diego, CA, USA). All of the enzymatic reactions were conducted in duplicate at room temperature for 60-960 min in a 50 μL mixture containing proper methyltransferase assay buffer, S-adenosylmethionine (SAM), enzyme, and the test compound. These 50 μL reactions were carried out in wells of a substrate pre-coated plate. […]
After enzymatic reactions, the reaction mixtures were discarded and each of the wells was washed three times with TBST buffer, and slowly shaken with Blocking Buffer for 10 min. […] Immediately, the luminescence of the samples was measured in a BioTek Synergy™ 2 (Winooski, VT, USA) microplate reader using Gen5 software.
Data analysis. […] The luminescence data/alpha counts were analyzed and compared. […] The percent activity in the presence of each compound was calculated according to the following equation: % activity=(C−C0)/(Ce−C0), where C=the luminescence/alpha counts in the presence of the compound.

Series [2] can be described thus: Parallel artificial membrane permeability assay (PAMPA). Type of series: in vitro ADME. Here is the method:
Parallel artificial membrane permeability assay (PAMPA).^5 The membrane permeability of selected compounds was evaluated using the Corning® BioCoat™ Pre-coated PAMPA Plate System (Corning 353015; Glendale, AZ, USA). The pre-coated plate assembly, which was stored at −20° C., was taken to thaw for 30 min at room temperature. The permeability assay was carried out in accordance with the manufacturer's protocol. Briefly, the 96-well filter plate, pre-coated with lipids, was used as the permeation acceptor and a matching 96 well receiver plate was used as the permeation donor. Compound solutions were prepared by diluting the 10 mmol/L DMSO stock solutions with 10% methanol in DPBS to a final concentration of […]. The compound solutions were added to the wells (300 μL/well) of the receiver plate and DPBS with 10% methanol was added to the wells (200 μL/well) of the pre-coated filter plate. The filter plate was then coupled with the receiver plate and the plate assembly was incubated at 25° C. without agitation for 5 h. At the end of the incubation, the plate was separated and the final concentrations of compounds in both donor wells and acceptor wells were analyzed using LC-MS/MS. Permeability of a compound was calculated using the Eq. (1):
where A=filter area (0.3 cm^2), VD=donor well volume (0.3 mL), VA=acceptor well volume (0.2 mL), t=incubation time (seconds), CA(t)=compound concentration in acceptor well at time t, CD(t)=compound concentration in donor well at time t, and Ceq was calculated using the Eq. (2): […]
A cutoff criterion of Pe value at […] was used to classify the compounds into high and low permeability according to the literature report of this PAMPA plate system^1.

For series [3], the system named is SARS-CoV-2 isolate USA-WA1/2020. To be noted: inhibition at 50 μM.
Series [4] is described as follows: Plasma stability assay, mouse plasma. Type of series: in vitro ADME, mouse (CD-1). Here is the method:
Plasma stability assay. The plasma stability assay was performed in triplicate by incubating each selected compound (1 μmol/L final concentration) in normal mouse (CD-1) or human plasma (Innovative Research; Novi, MI, USA) diluted to 80% with 0.1 mol/L potassium phosphate buffer (pH 7.4) at 37° C. At 0, 1, 3, 6, and 24 h, a 50 μL aliquot of the plasma mixture was taken and quenched with 150 μL of acetonitrile containing 0.1% formic acid. The samples were then vortexed and centrifuged at 15,000 rpm (Eppendorf centrifuge 5424R; Enfield, CT, USA) for 5 min. The supernatants were collected and analyzed by LC-MS/MS to determine the in vitro plasma half-life (t1/2).

Series [5] in a line: Liver S9 stability assay, mouse liver S9. The following applies: n = 2, mean±SD.

Regarding `Nc1ncnc2c1ncn2[C@@H]1O[C@H](CNS(=O)(=O)c2ccc3ccccc3c2)[C@@H](O)[C@H]1O` [Compound 3, N-(((2R,3S,4R,5R)-5-(6-Amino-9H-purin-9-yl)-3,4-dihydroxytetrahydrofuran-2-yl)methyl)naphthalene-2-sulfonamide], in series [1] (cofactor NADPH), the “Human Liver S9 Stability t1/2, Phase I” value worked out at 11.2 ± 2.27 h. For the same compound, the “Human Liver S9 Stability t1/2, Phase II” value in series [1] (cofactor UDPGA) is >45^e min. In addition, the “inhibition of a panel of 10 human MTases” value in the series with panel of 10 human MTases is given as “minimal inhibition”. For the same compound, the “passive diffusion rate in PAMPA” value in series [2] (PAMPA) is reported as “equally low”. Moreover, the “PAMPA Permeability Pe” value in series [2] (n = 6, mean±SD, 25° C., 5 h) is 0.2 ± 0.1 10^−6 cm/s. Besides, the “EC50: NA (not active)” value in series [3] was “NA^a (NA, not active, <15% inhibition at 50 μM.)”. Also, the “Plasma Stability t1/2, Mouse” value in series [4] (mouse plasma, 37° C., n = 3) was >24^d h. For the same compound, the “stability in mouse plasma” value in series [4] (mouse, plasma) is “remarkably stable”. Further, the “Mouse Liver S9 Stability t1/2, Phase I” value in series [5] (cofactor NADPH) was determined as 4.55 ± 0.383 h. Besides, in series [5] (cofactor UDPGA), the “Mouse Liver S9 Stability t1/2, Phase II” value is listed as >45^e min.
